Results taken from patent US20260258050A1, “IMMUNOMODULATOR” (HITGEN INC., priority 2023, published 2026).

Experiments:
[1] = target: T1, Human IL-17A (Homo sapiens, UniProt Q16552); assay: IL-17A enzyme-linked immunosorbent assay (competitive ELISA, IL-17A/IL-17Ra receptor-ligand binding); parameters: purchased Sino Biological Inc. 12047-H07B; conditions: human IL-17A coated plate, human IL-17Ra, read-out: IC50, inhibitory activity of compounds on human IL-17A
T1 sequence (Q16552 20-155 limits assumed): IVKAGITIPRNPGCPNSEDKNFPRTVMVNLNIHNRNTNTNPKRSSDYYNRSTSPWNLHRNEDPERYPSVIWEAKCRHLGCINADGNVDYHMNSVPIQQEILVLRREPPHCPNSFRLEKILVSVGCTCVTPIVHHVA
In short: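 Competitive ELISA with plates coated with human IL-17A at 0.2 μg/ml, blocked with 5% skim milk. Compound pre-incubated with IL-17A 10 min at 25 °C, then 16 nM IL-17Ra stock added for 30 min. Bound receptor detected by anti-Fc HRP/TMB, A450. IC50 from variable-slope fit of blank-corrected residual activity.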

[2] = target: T1, Human IL-17A; assay: Inhibition of human IL-17A protein-induced GROα/CXCL1 production in HT-29 cells; assay type: cell-based; parameters: purchased R&D 317-ILB; host or cells: added exogenously to HT-29 cells; conditions: 30 ng/mL human IL-17A protein, 48 h, GROα in supernatant by ELISA kit, read-out: Inhibitory IC50 of compounds on HT-29 cell GROα/CXCL1
In short: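 Compound dilutions were preincubated 1 h at 37 °C with 30 ng/mL human IL-17A, then added to HT-29 cells (5×10^4/well) for 48 h at 37 °C. GROα in supernatant quantified by ELISA; IC50 for inhibition of its production. Positive control: IL-17A antibody at […].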

SMILES	IC50 [1] [nM]	IC50 [2] [nM]
CCN1CCc2n[nH]c(C)c2-c2cc(F)c(NC(=O)[C@@H](NC(=O)c3ccnn3C(C)C)C(C3CC3)C3CC3)cc2C1 [compound 156]	≤ 50	100 to 500
CCn1nccc1C(=O)N[C@H](C(=O)Nc1cc2c(cc1F)-c1c(n[nH]c1C)CC(=O)N(C)C2)C(C1CC1)C1CC1 [compound 133]	≤ 50	100 to 500
Cc1[nH]nc2c1-c1cc(F)c(NC(=O)[C@@H](NC(=O)c3ccnn3C(C)C)C(C3CC3)C3CC3)cc1CN(CC(C)(F)F)CC2 [compound 160]	≤ 50	≤ 100
CCn1nccc1C(=O)N[C@H](C(=O)Nc1cc2c(cc1F)-c1c(n[nH]c1C)CCN(CC(C)(F)F)C2)C(C1CC1)C1CC1 [compound 161]	≤ 50	≤ 100
Cc1[nH]nc2c1-c1cc(F)c(NC(=O)[C@@H](NC(=O)c3ccnn3C(C)C)C(C3CC3)C3CC3)cc1CN(CC(C)(F)F)C(=O)C2 [compound 148]	≤ 50	≤ 100
Cc1[nH]nc2c1-c1cc(F)c(NC(=O)[C@@H](NC(=O)c3ccnn3C(C)C)C(C3CC3)C3CC3)cc1CN(C)C(=O)C2 [compound 132]	≤ 50	≤ 100
Cc1[nH]nc2c1-c1cc(F)c(NC(=O)[C@@H](NC(=O)c3ccnn3C(C)C)C(C3CC3)C3CC3)cc1CN(CC(F)F)CC2 [compound 158]	≤ 50	≤ 100
CCn1nccc1C(=O)N[C@H](C(=O)Nc1cc2c(cc1F)-c1c(n[nH]c1C)CC(=O)N(C(C)C)C2)C(C1CC1)C1CC1 [compound 151]	≤ 50	≤ 100
CCn1nccc1C(=O)N[C@H](C(=O)Nc1ccc2c(c1)COCCc1n[nH]c(C)c1-2)C(C1CC1)C1CC1 [compound 3]	≤ 50	≤ 100
CCn1nccc1C(=O)N[C@H](C(=O)Nc1cc2c(cc1F)-c1c(n[nH]c1C)CCN(CC(F)F)C2)C(C1CC1)C1CC1 [compound 159]	≤ 50	≤ 100
Cc1[nH]nc2c1-c1cc(F)c(NC(=O)[C@@H](NC(=O)c3ccnn3C(C)C)C(C3CC3)C3CC3)cc1CN(C1CC1)C(=O)C2 [compound 136]	≤ 50	≤ 100
CCn1nccc1C(=O)N[C@H](C(=O)Nc1cc2c(cc1F)-c1c(n[nH]c1C)CC(=O)N(CC(C)(F)F)C2)C(C1CC1)C1CC1 [compound 149]	≤ 50	≤ 100
Cc1[nH]nc2c1-c1cc(F)c(NC(=O)[C@@H](NC(=O)c3ccnn3C(C)C)C(C3CC3)C3CC3)cc1CN(CC(F)F)C(=O)C2 [compound 144]	≤ 50	≤ 100
Cc1[nH]nc2c1-c1cc(F)c(NC(=O)[C@@H](NC(=O)c3ccnn3C(C)C)C(C3CC3)C3CC3)cc1CN(C(C)C)C(=O)C2 [compound 150]	≤ 50	≤ 100
CCN1Cc2cc(NC(=O)[C@@H](NC(=O)c3ccnn3CC)C(C3CC3)C3CC3)c(F)cc2-c2c(n[nH]c2C)CC1=O [compound 143]	≤ 50	≤ 100
Cc1[nH]nc2c1-c1cc(F)c(NC(=O)[C@@H](NC(=O)c3ccnn3C(C)C)C(C3CC3)C3CC3)cc1CN(C1CC1)CC2 [compound 165]	≤ 50	≤ 100
Cc1[nH]nc2c1-c1ccc(NC(=O)[C@@H](NC(=O)c3ccnn3C3CC3)C(C3CC3)C3CC3)cc1COCC2 [compound 6]	≤ 50	100 to 500
Cc1[nH]nc2c1-c1cc(F)c(NC(=O)[C@@H](NC(=O)c3ccnn3C(C)C)C(C3CC3)C3CC3)cc1CN(CC(F)(F)F)C(=O)C2 [compound 152]	≤ 50	≤ 100
CCn1nccc1C(=O)N[C@H](C(=O)Nc1cc2c(cc1F)-c1c(n[nH]c1C)CC(=O)N(CC(F)F)C2)C(C1CC1)C1CC1 [compound 145]	≤ 50	≤ 100
CCN1Cc2cc(NC(=O)[C@@H](NC(=O)c3ccnn3C(C)C)C(C3CC3)C3CC3)c(F)cc2-c2c(n[nH]c2C)CC1=O [compound 142]	≤ 50	≤ 100
Cc1[nH]nc2c1-c1cc(F)c(NC(=O)[C@@H](NC(=O)c3ccnn3C(C)C)C(C3CC3)C3CC3)cc1CN(CC1CC1)C(=O)C2 [compound 153]	≤ 50	≤ 100
Cc1[nH]nc2c1-c1cnc(NC(=O)[C@@H](NC(=O)c3ccnn3C[C@@H]3C[C@H]3F)C(C3CC3)C3CC3)cc1COCC2 [compound 125]	≤ 50	≤ 100
Cc1[nH]nc2c1-c1cc(F)c(NC(=O)[C@@H](NC(=O)c3ccnn3C(C)C)C(C3CC3)C3CC3)cc1CN(CC(F)(F)F)CC2 [compound 164]	≤ 50	≤ 100
